Test results published in EP4603105A1, “PHARMACEUTICAL COMPOSITION CONTAINING CYCLIC COMPOUND HAVING SELECTIVE KRAS INHIBITORY EFFECT AGAINST HRAS AND NRAS” (CHUGAI SEIYAKU KABUSHIKI KAISHA, priority 2022, dated 2024).
*1 amine or outer side, *2 acyl side, *3 side chain or, on linkers, in order; H or OH if unused. Where a SMILES comes first, the peptide text is derived from it. Bridges are numbered along the chain shown (N, C = ends). [ ]: non-standard residue; d: D form. The star is where a group is joined. hPhe(3-Cl-4-CF3) = N[C@@H](CCc1ccc(C(F)(F)F)c(Cl)c1)C(=O)O; X18 = CCCCN([C@@H](Cc1ccc(C(F)(F)F)cc1)C(=O)[*:2])[*:1]; NPrPhe(4-CF3) = CCCN[C@@H](Cc1ccc(C(F)(F)F)cc1)C(=O)O; NMeGly(cPent) = CN[C@H](C(=O)O)C1CCCC1; Piperidide(4-Me) = CC1CCN(*)CC1; NMeD = CN[C@@H](CC(=O)O)C(=O)O; NMeL = CN[C@@H](CC(C)C)C(=O)O; Morpholide = C1CN(*)CCO1; NMeA = CN[C@@H](C)C(=O)O; Ac5c = NC1(C(=O)O)CCCC1; Aze = O=C(O)[C@@H]1CCN1; Ac3c = NC1(C(=O)O)CC1; Sar = CNCC(=O)O

Assays:
HRAS wild-type protein = HRAS wild-type protein (Homo sapiens, UniProt P01112); assay: Binding to HRAS by surface plasmon resonance (SPR), KD and KD ratio to KRAS
Chain of HRAS wild-type protein (P01112 whole entry): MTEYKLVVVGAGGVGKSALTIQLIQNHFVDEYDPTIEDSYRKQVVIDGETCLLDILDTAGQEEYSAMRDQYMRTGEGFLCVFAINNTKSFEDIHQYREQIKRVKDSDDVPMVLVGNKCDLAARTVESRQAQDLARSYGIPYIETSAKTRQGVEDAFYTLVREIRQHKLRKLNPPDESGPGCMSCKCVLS
How it was run: (§1)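 Each cycle, GDP-bound biotin-Avi RAS was captured (~100–300 RU), compound concentrations were injected low to high for 75 s each at 100 µL/min, then the chip was regenerated. Buffer: HBS pH 7.4, 10 mM MgCl2, 10 µM GDP, 1 mM DTT, 4% DMSO; 30°C. KD from a 1:1 binding model.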

[1] = target: GDP-bound NRAS wild-type protein (Homo sapiens, UniProt P01111); assay: Binding to NRAS by surface plasmon resonance (SPR), KD and KD ratio to KRAS
Chain of GDP-bound NRAS wild-type protein (P01111 whole entry): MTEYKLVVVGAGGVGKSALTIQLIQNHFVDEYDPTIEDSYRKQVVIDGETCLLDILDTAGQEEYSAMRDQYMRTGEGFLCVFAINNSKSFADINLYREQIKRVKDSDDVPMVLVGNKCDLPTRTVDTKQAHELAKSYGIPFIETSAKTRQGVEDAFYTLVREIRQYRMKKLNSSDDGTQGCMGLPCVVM
How it was run: as §1

[2] = test system: human lung cancer strain NCI-H441; format: cell-based
How it was run: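 Signal came from […] measured per well once the reagent was added. Beforehand, cells were cultured at 37°C and 5% carbon dioxide on a compound series serially diluted in dimethyl sulfoxide.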

[3] = ratio of KD for HRAS wild-type protein to KD for KRAS
[4] = ratio of KD for GDP-bound NRAS wild-type protein to KD for KRAS

Row | IC50 [2] [nM] | SMILES | HRAS /KRAS (HRAS wild-type protein; ratio of the KD value with respect to HRAS wild-type protein to the KD value with respect to KRAS) | NRAS /KRAS ([1]; ratio of the KD value with respect to GDP-bound NRAS wild-type protein to the KD value with respect to KRAS) | HRAS /KRAS (HRAS wild-type protein; [3]) | NRAS /KRAS [1, 4]
1 | 6.6 | CCC[C@H]1C(=O)N[C@@H](C2CCCC2)C(=O)N(C)CC(=O)N(C)[C@H]2C/C=C\CCN(C2=O)[C@@H](Cc2ccc(C)cc2)C(=O)N(C)CC(=O)N[C@@H](CCc2ccc(C(F)(F)F)c(Cl)c2)C(=O)N2C[C@H](OCC)C[C@H]2C(=O)NC2(CC(C)(C)C2)C(=O)N(C)[C@@H](CC(C)(C)C)C(=O)N(C)[C@H](C(=O)N(C)C)CC(=O)N1C [PP2196] | B (a compound having 3 or more and less than 10 is denoted as B) | A (a compound having 10 or more and less than 20 is denoted as A) | – | –
2 | 7.6 | C#CC[C@H]1C(=O)N[C@@H]([C@@H](C)CC)C(=O)N(C)CC(=O)N(C)[C@H]2C/C=C\CCN(C2=O)[C@@H](Cc2ccc(C(F)(F)F)cc2)C(=O)N(C)CC(=O)N[C@@H](CCc2ccc(C(F)(F)F)c(Cl)c2)C(=O)N2C[C@H](OCC)C[C@H]2C(=O)NC2(CC(C)(C)C2)C(=O)N(C)[C@@H](C2CCCC2)C(=O)N(C)[C@H](C(=O)N(C)CC)CC(=O)N1C [PP2844] | – | – | A (a compound having 10 or more and less than 20 is denoted as A) | A (a compound having 10 or more and less than 20 is denoted as A)
3 | 7.9 | CC[C@H](C)[C@@H]1NC(=O)[C@@H]2CCCc3ccc(cc3)C[C@@H](C(=O)N(C)CC(=O)N[C@@H](CCc3ccc(C(F)(F)F)c(OC)c3)C(=O)N3C[C@H](OC4CCCC4)C[C@H]3C(=O)NC3(CC(C)(C)C3)C(=O)N(C)[C@@H](C3CCCC3)C(=O)N(C)[C@H](C(=O)N(C)CC)CC(=O)N2C)N2CC/C=C\C[C@@H](C2=O)N(C)C(=O)CN(C)C1=O [PP3086] | – | – | B (a compound having 3 or more and less than 10 is denoted as B) | B (a compound having 3 or more and less than 10 is denoted as B)

More lines, now with the values behind:

Row | SMILES | IC50 [2] [nM] | HRAS /KRAS (HRAS wild-type protein; ratio of the KD value with respect to HRAS wild-type protein to the KD value with respect to KRAS) | NRAS /KRAS ([1]; ratio of the KD value with respect to GDP-bound NRAS wild-type protein to the KD value with respect to KRAS) | HRAS /KRAS (HRAS wild-type protein; [3]) | NRAS /KRAS [1, 4]
4 | CCCN1C(=O)CN(C)C(=O)CN(C)C(=O)[C@H]([C@@H](C)CC)NC(=O)[C@H](CC(C)C)N(C)C(=O)C[C@@H](C(=O)N2CCC(C)CC2)N(C)C(=O)[C@H](C2CCCC2)N(C)C(=O)C2(CCCC2)NC(=O)[C@@H]2CCCN2C(=O)[C@H](CCc2ccc(C(F)(F)F)c(Cl)c2)NC(=O)CN(C)C(=O)[C@@H]1Cc1ccc(C(F)(F)F)cc1 [PP0176] ([NMeL]I[Sar][Sar][NPrPhe(4-CF3)][Sar][hPhe(3-Cl-4-CF3)]P[Ac5c][NMeGly(cPent)][NMeD]-{Piperidide(4-Me)}; lactam N-11) | 17.7 | – | – | C (A compound having a KD ratio of 0.1 or more and less than 3 is denoted as C) | B (a compound having 3 or more and less than 10 is denoted as B)
5 | CCCN1C(=O)CN(C)C(=O)CN(C)C(=O)[C@H]([C@@H](C)CC)NC(=O)[C@H](CC(C)C)N(C)C(=O)C[C@@H](C(=O)N2CCOCC2)N(C)C(=O)[C@H](C2CCCC2)N(C)C(=O)C2(CC2)NC(=O)[C@@H]2CCCN2C(=O)[C@H](CCc2ccc(C(F)(F)F)c(Cl)c2)NC(=O)CN(C)C(=O)[C@@H]1Cc1ccc(C(F)(F)F)cc1 [PP0229] ([NMeL]I[Sar][Sar][NPrPhe(4-CF3)][Sar][hPhe(3-Cl-4-CF3)]P[Ac3c][NMeGly(cPent)][NMeD]-Morpholide; lactam N-11) | 24.7 | – | – | B (a compound having 3 or more and less than 10 is denoted as B) | B (a compound having 3 or more and less than 10 is denoted as B)
6 | CCO[C@H]1CCN2C(=O)[C@H](CCc3cc(F)c(C(F)(F)F)c(F)c3)NC(=O)CN(C)C(=O)[C@H](Cc3ccc(C(F)(F)F)cc3)N3CCCC[C@@H](C3=O)N(C)C(=O)CN(C)C(=O)[C@H]([C@@H](C)CC)NC(=O)[C@H](CC(C)C)N(C)C(=O)C[C@@H](C(=O)N3CCOCC3)N(C)C(=O)[C@H](C3CCCC3)N(C)C(=O)C3(CCC3)NC(=O)[C@H]12 [PP1076] | 4.6 | – | – | B (a compound having 3 or more and less than 10 is denoted as B) | B (a compound having 3 or more and less than 10 is denoted as B)
7 | CCCCN1C(=O)[C@@H]2CCN2C(=O)[C@H](C)N(C)C(=O)[C@H]([C@@H](C)CC)NC(=O)[C@H](CC(C)C)N(C)C(=O)C[C@@H](C(=O)N2CCOCC2)N(C)C(=O)[C@H](C2CCCC2)N(C)C(=O)C2(CCCC2)NC(=O)[C@@H]2CCCN2C(=O)[C@H](CCc2ccc(C(F)(F)F)c(Cl)c2)NC(=O)CN(C)C(=O)[C@@H]1Cc1ccc(C(F)(F)F)cc1 [PP0106] ([NMeL]I[NMeA][Aze][X18][Sar][hPhe(3-Cl-4-CF3)]P[Ac5c][NMeGly(cPent)][NMeD]-Morpholide; lactam N-11) | 12.3 | – | – | B (a compound having 3 or more and less than 10 is denoted as B) | C (A compound having a KD ratio of 0.1 or more and less than 3 is denoted as C)
8 | CCO[C@@H]1C[C@H]2C(=O)NC3(CCC3)C(=O)N(C)[C@@H](C(CC)CC)C(=O)N(C)[C@H](C(=O)N3CCOCC3)CC(=O)N(C)[C@@H](CC(C)C)C(=O)N[C@@H]([C@@H](C)CC)C(=O)N(C)CC(=O)N(C)[C@H]3CCCCN(C3=O)[C@@H](Cc3ccc(C(F)(F)F)cc3)C(=O)N(C)CC(=O)N[C@@H](CCc3cc(F)c(C(F)(F)F)c(F)c3)C(=O)N2C1 [PP0811] | 9.8 | – | – | B (a compound having 3 or more and less than 10 is denoted as B) | B (a compound having 3 or more and less than 10 is denoted as B)
